# Test results as given in PubChem BioAssay (NCI).
#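 In this assay, cells in 96-well plates receive the compound at five concentrations for 48 hours. Endpoints are linearly interpolated between the surrounding concentrations. TGI marks complete inhibition of growth.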
# Legend:
# Assay in all cases: NCI-60 cell line screen, 48 h
# [1] = test system: 786-0 renal
# [2] = test system: A498 renal
# [3] = test system: A549 NSCLC
# [4] = test system: ACHN renal
# [5] = test system: BT-549 breast
# [6] = test system: CAKI-1 renal
# [7] = test system: CCRF-CEM leukemia
# [8] = test system: COLO 205 colon
# [9] = test system: DLD-1 colon
# [10] = test system: DMS 114 small cell lung
# [11] = test system: DMS 273 small cell lung
# [12] = test system: DU-145 prostate
# [13] = test system: EKVX NSCLC
# [14] = test system: HCC-2998 colon
# [15] = test system: HCT-116 colon
# [16] = test system: HCT-15 colon
# [17] = test system: HL-60(TB) leukemia
# [18] = test system: HOP-18 NSCLC
# [19] = test system: HOP-62 NSCLC
# [20] = test system: HOP-92 NSCLC
# [21] = test system: HS 578T breast
# [22] = test system: HT29 colon
# [23] = test system: IGROV1 ovarian
# [24] = test system: K-562 leukemia
# [25] = test system: KM12 colon
# [26] = test system: KM20L2 colon
# [27] = test system: LOX IMVI melanoma
# [28] = test system: LXFL 529 NSCLC
# [29] = test system: M14 melanoma
# [30] = test system: M19-MEL melanoma
# [31] = test system: MALME-3M melanoma
# [32] = test system: MCF7 breast
# [33] = test system: MDA-MB-231 breast
# [34] = test system: MDA-MB-435
# [35] = test system: MDA-N
# [36] = test system: NCI-H226 lung
# [37] = test system: NCI-H23 lung
# [38] = test system: NCI-H460 lung
# [39] = test system: NCI-H522 lung
# [40] = test system: NCI/ADR-RES ovarian
# [41] = test system: OVCAR-3 ovarian
# [42] = test system: OVCAR-4 ovarian
# [43] = test system: OVCAR-5 ovarian
# [44] = test system: OVCAR-8 ovarian
# [45] = test system: PC-3 prostate
# [46] = test system: RPMI-8226 leukemia
# [47] = test system: RXF 393 renal
# [48] = test system: SF-268 CNS
# [49] = test system: SF-295 CNS
# [50] = test system: SF-539 CNS
# [51] = test system: SK-MEL-2 melanoma
# [52] = test system: SK-MEL-28 melanoma
# [53] = test system: SK-MEL-5 melanoma
# [54] = test system: SK-OV-3 ovarian
# [55] = test system: SN12C renal
# [56] = test system: SNB-19 CNS
# [57] = test system: SNB-75 CNS
# [58] = test system: SNB-78 CNS
# [59] = test system: SR leukemia
# [60] = test system: SW-620 colon
# [61] = test system: T-47D breast
# [62] = test system: TK-10 renal
# [63] = test system: U251 CNS
# [64] = test system: UACC-257 melanoma
# [65] = test system: UACC-62 melanoma
# [66] = test system: UO-31 renal
# [67] = test system: XF 498 CNS
# [68] = test system: RXF-631 renal
# [69] = test system: MOLT-4 leukemia
smiles,measurement,setting,value
Cn1c2ccccc2c2ccc3c(c21)C(=O)C=CC3=O,TGI,[1],9.2 µM
same,TGI,[2],> 59.4 µM
same,TGI,[3],61 µM
same,TGI,[4],8.33 µM
same,TGI,[5],18.9 µM
same,TGI,[6],11.8 µM
same,TGI,[7],14.5 µM
same,TGI,[8],6.9 µM
same,TGI,[9],6.02 µM
same,TGI,[10],21.5 µM
same,TGI,[11],25.8 µM
same,TGI,[12],29.5 µM
same,TGI,[13],38.6 µM
same,TGI,[14],15.1 µM
same,TGI,[15],10.9 µM
same,TGI,[16],12.1 µM
same,TGI,[17],11.8 µM
same,TGI,[18],5.58 µM
same,TGI,[19],48 µM
same,TGI,[20],4.66 µM
same,TGI,[21],58.5 µM
same,TGI,[22],26 µM
same,TGI,[23],29.9 µM
same,TGI,[24],> 45.1 µM
same,TGI,[25],60.7 µM
same,TGI,[26],33.9 µM
same,TGI,[27],10.5 µM
same,TGI,[28],8.26 µM
same,TGI,[29],22.1 µM
same,TGI,[30],24.5 µM
same,TGI,[31],12.2 µM
same,TGI,[32],8.96 µM
same,TGI,[33],18.7 µM
same,TGI,[34],10.9 µM
same,TGI,[35],19.3 µM
same,TGI,[36],51 µM
same,TGI,[37],27.3 µM
same,TGI,[38],46.4 µM
same,TGI,[39],6.36 µM
same,TGI,[40],14.4 µM
same,TGI,[41],20.9 µM
same,TGI,[42],4.08 µM
same,TGI,[43],28.3 µM
same,TGI,[44],31.1 µM
same,TGI,[45],12.2 µM
same,TGI,[46],14.6 µM
same,TGI,[47],5.96 µM
same,TGI,[48],30.5 µM
same,TGI,[49],42.1 µM
same,TGI,[50],26.3 µM
same,TGI,[51],29.9 µM
same,TGI,[52],25.7 µM
same,TGI,[53],31 µM
same,TGI,[54],33.2 µM
same,TGI,[55],26.5 µM
same,TGI,[56],46.4 µM
same,TGI,[57],32.5 µM
same,TGI,[58],48.4 µM
same,TGI,[59],15.9 µM
same,TGI,[60],4.46 µM
same,TGI,[61],10.7 µM
same,TGI,[62],12.2 µM
same,TGI,[63],25.1 µM
same,TGI,[64],23.1 µM
same,TGI,[65],26.7 µM
same,TGI,[66],13.7 µM
same,TGI,[67],4.88 µM
O=C(NC1C2CC3CC(C2)CC1C3)c1ccncn1 (stereo unspecified),TGI,[1],> 100 µM
same,TGI,[2],> 100 µM
same,TGI,[3],> 100 µM
same,TGI,[4],> 100 µM
same,TGI,[6],> 100 µM
same,TGI,[7],> 100 µM
same,TGI,[8],> 100 µM
same,TGI,[9],> 100 µM
same,TGI,[10],> 100 µM
same,TGI,[11],> 100 µM
same,TGI,[13],> 100 µM
same,TGI,[14],> 100 µM
same,TGI,[15],> 100 µM
same,TGI,[16],> 100 µM
same,TGI,[17],> 100 µM
same,TGI,[19],> 100 µM
same,TGI,[20],> 100 µM
same,TGI,[22],> 100 µM
same,TGI,[23],> 100 µM
same,TGI,[24],> 100 µM
same,TGI,[25],> 100 µM
same,TGI,[26],> 100 µM
same,TGI,[28],> 100 µM
same,TGI,[29],> 100 µM
same,TGI,[30],> 100 µM
same,TGI,[31],> 100 µM
same,TGI,[36],> 100 µM
same,TGI,[37],> 100 µM
same,TGI,[38],> 100 µM
same,TGI,[39],> 100 µM
same,TGI,[41],> 100 µM
same,TGI,[42],> 100 µM
same,TGI,[43],> 100 µM
same,TGI,[44],> 100 µM
same,TGI,[68],> 100 µM
same,TGI,[48],> 100 µM
same,TGI,[49],> 100 µM
same,TGI,[50],> 100 µM
same,TGI,[51],> 100 µM
same,TGI,[52],> 100 µM
same,TGI,[53],> 100 µM
same,TGI,[55],> 100 µM
same,TGI,[56],> 100 µM
same,TGI,[57],> 100 µM
same,TGI,[58],> 100 µM
same,TGI,[60],> 100 µM
same,TGI,[63],> 100 µM
same,TGI,[64],> 100 µM
same,TGI,[65],> 100 µM
same,TGI,[66],> 100 µM
C/C(CC(=O)Nc1ccc(C)c(C)c1)=N\NC(N)=S,TGI,[1],> 100 µM
same,TGI,[3],> 100 µM
same,TGI,[4],> 100 µM
same,TGI,[7],> 100 µM
same,TGI,[8],> 100 µM
same,TGI,[9],> 100 µM
same,TGI,[10],> 100 µM
same,TGI,[11],> 100 µM
same,TGI,[13],> 100 µM
same,TGI,[14],> 100 µM
same,TGI,[15],> 100 µM
same,TGI,[17],> 100 µM
same,TGI,[19],> 100 µM
same,TGI,[20],> 100 µM
same,TGI,[22],> 100 µM
same,TGI,[23],> 100 µM
same,TGI,[24],> 100 µM
same,TGI,[25],> 100 µM
same,TGI,[26],> 100 µM
same,TGI,[27],> 100 µM
same,TGI,[28],> 100 µM
same,TGI,[29],> 100 µM
same,TGI,[31],> 100 µM
same,TGI,[69],> 100 µM
same,TGI,[36],> 100 µM
same,TGI,[37],> 100 µM
same,TGI,[38],> 100 µM
same,TGI,[39],> 100 µM
same,TGI,[41],> 100 µM
same,TGI,[43],> 100 µM
same,TGI,[44],> 100 µM
same,TGI,[46],> 100 µM
same,TGI,[47],> 100 µM
same,TGI,[68],> 100 µM
same,TGI,[48],> 100 µM
same,TGI,[49],> 100 µM
same,TGI,[50],> 100 µM
same,TGI,[51],> 100 µM
same,TGI,[52],> 100 µM
same,TGI,[53],> 100 µM
same,TGI,[54],> 100 µM
same,TGI,[57],> 100 µM
same,TGI,[58],> 100 µM
same,TGI,[60],> 100 µM
same,TGI,[62],> 100 µM
same,TGI,[63],> 100 µM
same,TGI,[64],> 100 µM
same,TGI,[65],> 100 µM
same,TGI,[66],> 100 µM
